This passage reports IC50 results from patent publication US11578061B2, “Inhibitors of LRRK2 kinase” (Halia Therapeutics, Inc., priority 2021, dated 2023).

Sequence of recombinant human LRRK2 (catalytic domain only [amino acids 970-2527], GST-tagged) (Q5S007 970-2527): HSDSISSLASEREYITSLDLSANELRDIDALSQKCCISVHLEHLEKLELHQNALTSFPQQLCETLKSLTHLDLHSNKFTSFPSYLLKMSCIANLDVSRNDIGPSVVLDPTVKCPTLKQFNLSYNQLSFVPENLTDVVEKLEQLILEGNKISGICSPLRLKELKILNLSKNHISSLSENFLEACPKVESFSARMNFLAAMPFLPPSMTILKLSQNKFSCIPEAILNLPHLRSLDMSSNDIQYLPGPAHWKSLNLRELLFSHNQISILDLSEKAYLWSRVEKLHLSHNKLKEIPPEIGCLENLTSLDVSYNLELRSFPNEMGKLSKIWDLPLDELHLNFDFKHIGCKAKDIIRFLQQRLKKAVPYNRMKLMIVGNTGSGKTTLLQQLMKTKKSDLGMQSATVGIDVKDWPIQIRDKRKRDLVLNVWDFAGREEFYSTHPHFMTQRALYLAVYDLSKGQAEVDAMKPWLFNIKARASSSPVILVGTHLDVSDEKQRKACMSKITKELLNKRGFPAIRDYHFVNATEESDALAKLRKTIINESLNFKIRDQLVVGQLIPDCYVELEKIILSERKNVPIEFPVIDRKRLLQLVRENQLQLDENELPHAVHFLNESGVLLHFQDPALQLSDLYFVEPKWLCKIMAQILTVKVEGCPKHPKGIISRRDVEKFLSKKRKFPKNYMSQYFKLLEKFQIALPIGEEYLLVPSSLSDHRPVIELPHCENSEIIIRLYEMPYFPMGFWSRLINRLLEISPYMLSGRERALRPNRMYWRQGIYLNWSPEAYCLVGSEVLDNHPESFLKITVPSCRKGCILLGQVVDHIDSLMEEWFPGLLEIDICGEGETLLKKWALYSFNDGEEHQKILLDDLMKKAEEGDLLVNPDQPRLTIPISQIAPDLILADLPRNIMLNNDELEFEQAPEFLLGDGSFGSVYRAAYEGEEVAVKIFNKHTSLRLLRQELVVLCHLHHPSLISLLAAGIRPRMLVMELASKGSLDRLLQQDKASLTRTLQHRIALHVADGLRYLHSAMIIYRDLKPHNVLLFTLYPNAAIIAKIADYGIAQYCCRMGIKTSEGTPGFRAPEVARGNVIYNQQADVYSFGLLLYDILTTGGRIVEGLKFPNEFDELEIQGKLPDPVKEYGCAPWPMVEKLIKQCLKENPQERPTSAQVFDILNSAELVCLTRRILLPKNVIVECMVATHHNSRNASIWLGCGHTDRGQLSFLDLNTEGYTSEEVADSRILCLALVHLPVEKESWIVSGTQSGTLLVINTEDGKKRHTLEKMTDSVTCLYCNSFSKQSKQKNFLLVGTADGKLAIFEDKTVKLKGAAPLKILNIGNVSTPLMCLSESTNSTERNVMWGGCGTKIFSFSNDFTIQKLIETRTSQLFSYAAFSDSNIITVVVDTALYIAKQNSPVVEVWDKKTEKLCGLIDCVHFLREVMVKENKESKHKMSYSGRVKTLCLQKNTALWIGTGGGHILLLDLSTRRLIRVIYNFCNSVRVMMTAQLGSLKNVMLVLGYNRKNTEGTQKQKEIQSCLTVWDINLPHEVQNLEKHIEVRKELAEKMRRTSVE

This test has as its target recombinant human LRRK2 (catalytic domain only [amino acids 970-2527], GST-tagged) (Homo sapiens (Human), UniProt Q5S007). The test is described as follows: LRRK2 Enzymatic Assay. The settings on record: LRRKtide substrate, [32P]-ATP. The test is classed as biochemical. As for the experimental part: LRRKtide substrate (peptide sequence RLGRDKYKTLRQIRQ, derived from human ezrin [amino acids 561-573], moesin [amino acids 539-553] and radixin [amino acids 558-570], obtained from SignalChem, catalogue #L10-58, reconstituted in 20 mM Tris-HCl at pH 7.5 to a final concentration of 1 mg/mL, assay concentration 20 μM) and recombinant human LRRK2 (catalytic domain only [amino acids 970-2527], GST-tagged, expressed in insect cells, obtained from ThermoFisher Scientific, catalogue #PV4874, 0.35 mg/mL, assay concentration 30 nM) were mixed in assay buffer (20 mM Hepes pH 7.5, 10 mM MgCl2, 1 mM EGTA, 0.02% Brij35, 0.02 mg/ml BSA, 0.1 mM Na3VO4, 2 mM DTT, 1% DMSO). Compounds of interest (in DMSO, serial 3-fold dilution from 10 μM to 0.5 nM) or control (1% DMSO) were dispensed into the kinase reaction mixture by Acoustic technology (Echo550; nanoliter range). After incubation at room temperature for 20 minutes, the kinase reaction was initiated by addition of [^32P]-ATP (Specific activity 10 μCi/μl) and the mixture was incubated at room temperature for 2 hours. The reaction was then stopped by spotting the reaction mixture on strips of phosphocellulose P81 paper. Following washing, the radioactivity of the P81 paper was measured and kinase activity data were expressed as the percent remaining kinase activity in test samples compared to vehicle (dimethyl sulfoxide) reactions. IC50 values and curve fits were obtained using Prism (GraphPad Software).
For orientation: IC50 means the concentration needed to halve the response being measured. In the case of `Cc1nc(Nc2ccc(N3CCOCC3)cc2)nc(OC[C@H]2CC[C@H](O)CC2)c1F` [Example 265, (1R,4R)-4-(((5-fluoro-6-methyl-2-((4-morpholinophenyl)amino)pyrimidin-4-yl)oxy)methyl)cyclohexan-1-ol], the IC50 was > 0.4 µM.
On to `O=C(N[C@H]1CC[C@H](COc2nc(Nc3cccc(N4CCOCC4)c3)ncc2Cl)CC1)C(F)F` [Example 101, N-((1R,4R)-4-(((5-chloro-2-((3-morpholino-phenyl)amino)pyrimidin-4-yl)oxy)methyl)cyclohexyl)-2,2-difluoro-acetamide], for which the IC50 was < 0.05 µM.
In the case of `Fc1cnc(Nc2ccc(N3CCOCC3)cc2)nc1OCC1CCC(F)(F)CC1` [Example 268, 4-((4,4-difluorocyclohexyl)methoxy)-5-fluoro-N-(4-morpholinophenyl)pyrimidin-2-amine], the IC50 was in the range of 0.05 to 0.2 µM.
In the case of `O[C@H]1CC[C@H](COc2nc(Nc3cnn(C4CCOCC4)c3Cl)ncc2F)CC1` [Example 242, (1R,4R)-4-(((2-((5-chloro-1-(tetrahydro-2H-pyran-4-yl)-1H-pyrazol-4-yl)amino)-5-fluoropyrimidin-4-yl)oxy)methyl)cyclohexan-1-ol], the IC50 was < 0.05 µM.
Consider `Cc1nn(C(C)C)cc1Nc1ncc(F)c(OC[C@H]2CC[C@H](O)CC2)n1` [Example 230, (1R,4R)-4-(((5-fluoro-2-((1-isopropyl-3-methyl-1H-pyrazol-4-yl)amino)pyrimidin-4-yl)oxy)methyl)cyclohexan-1-ol], for which the IC50 fell in the range of 0.05 to 0.2 µM.
For the molecule `CCN1CCN(c2ccc(Nc3ncc(Cl)c(OCC4CCC(O)CC4)n3)nc2)CC1` (centres unmarked) [Example 132, 4-(((5-chloro-2-((5-(4-ethylpiperazin-1-yl)pyridin-2-yl)amino)pyrimidin-4-yl)oxy)methyl)cyclohexan-1-ol], the IC50 lay in the range of 0.05 to 0.2 µM.
With `Cn1ccc(Nc2nccc(OC[C@H]3CC[C@@H](N)CC3)n2)n1` [Example 3, 4-(((1S,4S)-4-aminocyclohexyl)methoxy)-N-(1-methyl-1H-pyrazol-3-yl) pyrimidin-2-amine], the IC50 was in the range of 0.05 to 0.2 µM.
In the case of `CN[C@H]1CC[C@H](COc2nc(Nc3ccc(N4CCOCC4)cc3)ncc2Cl)CC1` [Example 38, 5-chloro-4-(((1R,4R)-4-(methylamino)cyclo-hexyl)methoxy)-N-(4-morpholinophenyl) pyrimidin-2-amine], the IC50 was < 0.05 µM.
`Cc1nn(C(C)(C)C#N)cc1Nc1ncc(F)c(OCC2CCNCC2F)n1` (single isomer, unassigned) [Example 171, 2-(4-((5-fluoro-4-((3-fluoropiperidin-4-yl)methoxy)pyrimidin-2-yl)amino)-3-methyl-1H-pyrazol-1-yl)-2-methylpropanenitrile]: the IC50 is 0.2 to 0.4 µM.
For the molecule `CCO[C@H]1CC[C@@H](COc2nc(Nc3ccc(N4C[C@@H](C)O[C@@H](C)C4)cc3)ncc2F)CC1` [Example 276, N-(4-((2S,6R)-2,6-dimethylmorpholino)phenyl)-4-(((1S,4S)-4-ethoxycyclohexyl)methoxy)-5-fluoropyrimidin-2-amine], the IC50 lay within 0.05 to 0.2 µM.
Take `Cc1nn(C(C)(C)C#N)cc1Nc1ncc(Cl)c(OCC2(F)CCNCC2)n1` [Example 20, 2-(4-((5-chloro-4-((4-fluoropiperidin-4-yl)methoxy)pyrimidin-2-yl)amino)-3-methyl-1H-pyrazol-1-yl)-2-methylpropanenitrile]: the 50% inhibitory concentration (IC50) was < 0.05 µM.
Consider `C[C@@H]1CN(c2ccc(Nc3ncc(F)c(OCC4CCC(F)(F)C4)n3)cc2)C[C@H](C)O1` (stereo partly drawn) [Example 271, 4-((3,3-difluorocyclopentyl)methoxy)-N-(4-((2S,6R)-2,6-dimethylmorpholino)phenyl)-5-fluoropyrimidin-2-amine], for which the IC50 lay within 0.05 to 0.2 µM.
For `CC(=O)N1CCC(COc2nc(Nc3cn(C(C)(C)C#N)nc3C)ncc2F)C(F)C1` (single isomer, unassigned) [Example 176, 2-(4-((4-((1-acetyl-3-fluoropiperidin-4-yl)methoxy)-5-fluoropyrimidin-2-yl)amino)-3-methyl-1H-pyrazol-1-yl)-2-methylpropanenitrile], the IC50 is 0.2 to 0.4 µM.
In the case of `CC(=O)N[C@H]1CC[C@H](COc2nc(Nc3ccc(N4C[C@@H](C)O[C@@H](C)C4)cc3)ncc2F)CC1` [Example 83], the IC50 is < 0.05 µM.
Turning to `Cc1nn(C2CC(C#N)C2)cc1Nc1ncc(Cl)c(OCC2(F)CN(C)C2)n1` (centres unmarked) [Example 69, 3-(4-((5-chloro-4-((3-fluoro-1-methylazetidin-3-yl)methoxy)pyrimidin-2-yl)amino)-3-methyl-1H-pyrazol-1-yl)cyclobutane-1-carbonitrile], the IC50 is > 0.4 µM.
The figure for `Cc1nc(Nc2ccc(N3C[C@@H](C)O[C@@H](C)C3)cc2)nc(OC[C@H]2CC[C@H](O)CC2)c1F` [Example 266, (1R,4R)-4-(((2-((4-((2S,6R)-2,6-dimethylmorpholino)phenyl)amino)-5-fluoro-6-methylpyrimidin-4-yl)oxy)methyl)cyclohexan-1-ol] is > 0.4 µM.
`N[C@H]1CC[C@H](COc2nc(Nc3ccc(N4CCOCC4)cc3)ncc2C(F)(F)F)CC1` [Example 7, 4-(((1R,4R)-4-aminocyclohexyl)methoxy)-N-(4-morpholinophenyl)-5-(trifluoromethyl) pyrimidin-2-amine]: the IC50 was > 0.4 µM.
The figure for `Fc1cnc(Nc2ccc(N3CCOCC3)cc2)nc1OCC1CCNCC1(F)F` (centres unmarked) [Example 29, 4-((3,3-difluoropiperidin-4-yl)methoxy)-5-fluoro-N-(4-morpholinophenyl) pyrimidin-2-amine] is < 0.05 µM.
As to `CC(=O)N[C@H]1CC[C@@H](COc2ccnc(Nc3ccc(N4CCOCC4)cc3)n2)C1` [Example 89, N-((1S,3R)-3-(((2-((4-morpholinophenyl)amino)pyrimidin-4-yl)oxy)methyl)cyclo-pentyl)acetamide], the IC50 is > 0.4 µM.
In the case of `CC(=O)N[C@H]1CC[C@H](COc2ccnc(Nc3ccc(N4C[C@@H](C)O[C@@H](C)C4)cc3)n2)CC1` [Example 73, N-((1R,4R)-4-(((2-((4-((2R,6S)-2,6-dimethylmorpholino)phenyl)amino)pyrimidin-4-yl)oxy)methyl)cyclo-hexyl)acetamide], the IC50 lay within 0.05 to 0.2 µM.
Regarding `N[C@H]1CC[C@H](COc2ccnc(Nc3cccc(N4CCOCC4)c3)n2)CC1` [Example 6, 4-(((1R,4R)-4-aminocyclohexyl)methoxy)-N-(3-morpholinophenyl) pyrimidin-2-amine], the IC50 is < 0.05 µM.
As for `N[C@H]1CC[C@H](COc2ccnc(Nc3ccc(N4CCOCC4)cc3)n2)CC1` [Example 2, 4-(((1R,4R)-4-aminocyclohexyl)methoxy)-N-(4-morpholinophenyl) pyrimidin-2-amine], the IC50 was < 0.05 µM.
Consider `CC(=O)N[C@H]1CC[C@H](COc2nc(Nc3cnn(CC(F)(F)F)c3)ncc2F)CC1` [Example 188, N-((1R,4R)-4-(((5-fluoro-2-((1-(2,2,2-trifluoroethyl)-1H-pyrazol-4-yl)amino)pyrimidin-4-yl)oxy)methyl)cyclo-hexyl)acetamide], for which the IC50 was < 0.05 µM.
Consider `CN[C@H]1CC[C@H](COc2nc(Nc3cn(C(C)(C)C#N)nc3C)ncc2C)CC1` [Example 44, 2-methyl-2-(3-methyl-4-((5-methyl-4-(((1R,4R)-4-(methylamino)cyclo-hexyl)methoxy)py-rimidin-2-yl)amino)-1H-pyrazol-1-yl)propanenitrile], for which the IC50 was < 0.05 µM.
In the case of `Cc1nn(C(C)(C)C#N)cc1Nc1ncc(F)c(OC[C@H]2CC[C@H](OC(F)F)CC2)n1` [Example 286, 2-(4-((4-(((1R,4R)-4-(difluoromethoxy)cyclohexyl)methoxy)-5-fluoropyrimidin-2-yl)amino)-3-methyl-1H-pyrazol-1-yl)-2-methylpropanenitrile], the IC50 lay in the range of 0.05 to 0.2 µM.
For the molecule `C[C@@H]1CN(c2ccc(Nc3ncc(F)c(OCC4CCC(F)(F)CC4)n3)cc2)C[C@H](C)O1` [Example 269, 4-((4,4-difluorocyclohexyl)methoxy)-N-(4-((2R,6S)-2,6-dimethylmorpholino)phenyl)-5-fluoropyrimidin-2-amine], the IC50 fell in the range of 0.2 to 0.4 µM.
As for `Cc1nn(C(C)(C)C#N)cc1Nc1ncc(Cl)c(OCC2CCN(C(=O)C(F)F)CC2)n1` [Example 111, 2-(4-((5-chloro-4-((1-(2,2-difluoro-acetyl)piperidin-4-yl)methoxy)pyrimidin-2-yl)amino)-3-methyl-1H-pyrazol-1-yl)-2-methyl-propanenitrile], the IC50 was < 0.05 µM.
For the molecule `FC(F)CN1CCC(COc2nc(Nc3ccc(N4CCOCC4)cc3)ncc2Cl)CC1` [Example 113, 5-chloro-4-((1-(2,2-difluoroethyl)piperidin-4-yl)methoxy)-N-(4-morpholino-phenyl) pyrimidin-2-amine], the IC50 is < 0.05 µM.
Turning to `C[C@@H]1CN(c2ccc(Nc3ncc(F)c(OCC4CCC(C)(O)CC4)n3)cc2)C[C@H](C)O1` (stereo partly drawn) [Example 252, 4-(((2-((4-((2S,6R)-2,6-dimethylmorpholino)phenyl)amino)-5-fluoropyrimidin-4-yl)oxy)methyl)-1-methylcyclohexan-1-ol], the IC50 was < 0.05 µM.
